# Patent publication US10966978B2, “Dose and regimen for HDM2-p53 interaction inhibitors” (Novartis AG, priority 2016, dated 2021)
# Where two headings read alike, the source gives them in different places.
# Tested on: patients with advanced TP53 wild-type (WT) leukemias
compound,measurement,setting,value
"COc1ncc(-c2nc3c(n2C(C)C)[C@H](c2ccc(Cl)cc2)N(c2cc(Cl)cn(C)c2=O)C3=O)c(OC)n1 [HDM201, (S)-5-(5-Chloro-1-methyl-2-oxo-1,2-dihydro-pyridin-3-yl)-6-(4-chloro-phenyl)-2-(2,4-dimethoxy-pyrimidin-5-yl)-1-isopropyl-5,6-dihydro-1H-pyrrolo[3,4-d]imidazol-4-one]",AE: Nausea,"Regimen 2C N = 8, All Grades",3 (37.5) n (%)
same,AE: Neutropenia/Neutrophil Count Decreased,"Regimen 2C N = 8, All Grades",4 (50.0) n (%)
same,AE: Oedema,"Regimen 2C N = 8, All Grades",0 n (%)
same,AE: Oedema Peripheral,"Regimen 2C N = 8, All Grades",0 n (%)
same,AE: Oral Disorder,"Regimen 2C N = 8, All Grades",0 n (%)
same,AE: Pain In Extremity,"Regimen 2C N = 8, All Grades",0 n (%)
same,AE: Pancytopenia,"Regimen 2C N = 8, All Grades",1 (12.5) n (%)
same,AE: Pneumonia,"Regimen 2C N = 8, All Grades",0 n (%)
same,AE: Pollakiuria,"Regimen 2C N = 8, All Grades",0 n (%)
same,AE: Pyrexia,"Regimen 2C N = 8, All Grades",0 n (%)
same,AE: Rash,"Regimen 2C N = 8, All Grades",0 n (%)
same,AE: Rash Erythematous,"Regimen 2C N = 8, All Grades",0 n (%)
same,AE: Rash Papular,"Regimen 2C N = 8, All Grades",0 n (%)
same,AE: Rectal Haemorrhage,"Regimen 2C N = 8, All Grades",0 n (%)
same,AE: Renal Failure,"Regimen 2C N = 8, All Grades",1 (12.5) n (%)
same,AE: Skin Exfoliation,"Regimen 2C N = 8, All Grades",0 n (%)
same,AE: Stomatitis,"Regimen 2C N = 8, All Grades",1 (12.5) n (%)
same,AE: Subarachnoid Haemorrhage,"Regimen 2C N = 8, All Grades",0 n (%)
same,AE: Thrombocytopenia/Platelet Count Decreased,"Regimen 2C N = 8, All Grades",5 (62.5) n (%)
same,AE: Total,"Regimen 2C N = 8, All Grades",8 (100) n (%)
same,AE: Tumour Lysis Syndrome,"Regimen 2C N = 8, All Grades",1 (12.5) n (%)
same,AE: Vomiting,"Regimen 2C N = 8, All Grades",1 (12.5) n (%)
same,AE: Weight Decreased,"Regimen 2C N = 8, All Grades",0 n (%)
same,AE: White Blood Cell Count Decreased,"Regimen 2C N = 8, All Grades",2 (25.0) n (%)
same,AE: Abdominal Discomfort,"Regimen 2C N = 8, Grade 3/4",0 n (%)
same,AE: Abdominal Pain,"Regimen 2C N = 8, Grade 3/4",0 n (%)
same,AE: Abdominal Pain Upper,"Regimen 2C N = 8, Grade 3/4",0 n (%)
same,AE: Amylase Increased,"Regimen 2C N = 8, Grade 3/4",0 n (%)
same,AE: Anaemia,"Regimen 2C N = 8, Grade 3/4",3 (37.5) n (%)
same,AE: Arthralgia,"Regimen 2C N = 8, Grade 3/4",0 n (%)
same,AE: Asthenia,"Regimen 2C N = 8, Grade 3/4",0 n (%)
same,AE: Atrial Fibrillation,"Regimen 2C N = 8, Grade 3/4",0 n (%)
same,AE: Atypical Pneumonia,"Regimen 2C N = 8, Grade 3/4",0 n (%)
same,AE: Balanitis Candida,"Regimen 2C N = 8, Grade 3/4",0 n (%)
same,AE: Blood Alkaline Phosphatase Increased,"Regimen 2C N = 8, Grade 3/4",0 n (%)
same,AE: Blood Bilirubin Increased,"Regimen 2C N = 8, Grade 3/4",0 n (%)
same,AE: Blood Creatinine Increased,"Regimen 2C N = 8, Grade 3/4",1 (12.5) n (%)
same,AE: Blood Phosphorus Increased,"Regimen 2C N = 8, Grade 3/4",0 n (%)
same,AE: Blood Uric Acid Increased,"Regimen 2C N = 8, Grade 3/4",0 n (%)
same,AE: Bone Marrow Failure,"Regimen 2C N = 8, Grade 3/4",0 n (%)
same,AE: C-Reactive Protein Increased,"Regimen 2C N = 8, Grade 3/4",0 n (%)
same,AE: Cardiac Failure,"Regimen 2C N = 8, Grade 3/4",0 n (%)
same,AE: Cellulitis,"Regimen 2C N = 8, Grade 3/4",0 n (%)
same,AE: Chronic Graft Versus Host Disease,"Regimen 2C N = 8, Grade 3/4",0 n (%)
same,AE: Conjunctival Haemorrhage,"Regimen 2C N = 8, Grade 3/4",0 n (%)
same,AE: Constipation,"Regimen 2C N = 8, Grade 3/4",0 n (%)
same,AE: Cough,"Regimen 2C N = 8, Grade 3/4",0 n (%)
same,AE: Cystitis Viral,"Regimen 2C N = 8, Grade 3/4",0 n (%)
same,AE: Cytomegalovirus Infection,"Regimen 2C N = 8, Grade 3/4",0 n (%)
same,AE: Decreased Appetite,"Regimen 2C N = 8, Grade 3/4",0 n (%)
same,AE: Diarrhoea,"Regimen 2C N = 8, Grade 3/4",0 n (%)
same,AE: Dyspepsia,"Regimen 2C N = 8, Grade 3/4",0 n (%)
same,AE: Dyspnoea,"Regimen 2C N = 8, Grade 3/4",0 n (%)
same,AE: Epistaxis,"Regimen 2C N = 8, Grade 3/4",0 n (%)
same,AE: Fatigue,"Regimen 2C N = 8, Grade 3/4",0 n (%)
same,AE: Febrile Neutropenia,"Regimen 2C N = 8, Grade 3/4",3 (37.5) n (%)
same,AE: Gamma-Glutamyltransferase Increased,"Regimen 2C N = 8, Grade 3/4",0 n (%)
same,AE: General Physical Health Deterioration,"Regimen 2C N = 8, Grade 3/4",0 n (%)
same,AE: Gingival Bleeding,"Regimen 2C N = 8, Grade 3/4",0 n (%)
same,AE: Graft Versus Host Disease,"Regimen 2C N = 8, Grade 3/4",0 n (%)
same,AE: Haemoglobin Decreased,"Regimen 2C N = 8, Grade 3/4",0 n (%)
same,AE: Headache,"Regimen 2C N = 8, Grade 3/4",0 n (%)
same,AE: Hyperbilirubinaemia,"Regimen 2C N = 8, Grade 3/4",0 n (%)
same,AE: Hyperglycaemia,"Regimen 2C N = 8, Grade 3/4",0 n (%)
same,AE: Hyperkalaemia,"Regimen 2C N = 8, Grade 3/4",0 n (%)
same,AE: Hyperphosphataemia,"Regimen 2C N = 8, Grade 3/4",0 n (%)
same,AE: Hypoalbuminaemia,"Regimen 2C N = 8, Grade 3/4",0 n (%)
same,AE: Hypocalcaemia,"Regimen 2C N = 8, Grade 3/4",0 n (%)
same,AE: Hypokalaemia,"Regimen 2C N = 8, Grade 3/4",0 n (%)
same,AE: Hypomagnesaemia,"Regimen 2C N = 8, Grade 3/4",0 n (%)
same,AE: Hyponatraemia,"Regimen 2C N = 8, Grade 3/4",0 n (%)
same,AE: Hypophosphataemia,"Regimen 2C N = 8, Grade 3/4",0 n (%)
same,AE: Hypotension,"Regimen 2C N = 8, Grade 3/4",0 n (%)
same,AE: Infection,"Regimen 2C N = 8, Grade 3/4",0 n (%)
same,AE: Infective Glossitis,"Regimen 2C N = 8, Grade 3/4",0 n (%)
same,AE: Iron Overload,"Regimen 2C N = 8, Grade 3/4",0 n (%)
same,AE: Leukopenia,"Regimen 2C N = 8, Grade 3/4",0 n (%)
same,AE: Lip Oedema,"Regimen 2C N = 8, Grade 3/4",0 n (%)
same,AE: Lipase Increased,"Regimen 2C N = 8, Grade 3/4",0 n (%)
same,AE: Macular Oedema,"Regimen 2C N = 8, Grade 3/4",0 n (%)
same,AE: Malaise,"Regimen 2C N = 8, Grade 3/4",0 n (%)
same,AE: Mouth Haemorrhage,"Regimen 2C N = 8, Grade 3/4",0 n (%)
same,AE: Nausea,"Regimen 2C N = 8, Grade 3/4",0 n (%)
same,AE: Neutropenia/Neutrophil Count Decreased,"Regimen 2C N = 8, Grade 3/4",3 (37.5) n (%)
same,AE: Oedema,"Regimen 2C N = 8, Grade 3/4",0 n (%)
same,AE: Oedema Peripheral,"Regimen 2C N = 8, Grade 3/4",0 n (%)
same,AE: Oral Disorder,"Regimen 2C N = 8, Grade 3/4",0 n (%)
same,AE: Pain In Extremity,"Regimen 2C N = 8, Grade 3/4",0 n (%)
same,AE: Pancytopenia,"Regimen 2C N = 8, Grade 3/4",1 (12.5) n (%)
same,AE: Pneumonia,"Regimen 2C N = 8, Grade 3/4",0 n (%)
same,AE: Pollakiuria,"Regimen 2C N = 8, Grade 3/4",0 n (%)
same,AE: Pyrexia,"Regimen 2C N = 8, Grade 3/4",0 n (%)
same,AE: Rash,"Regimen 2C N = 8, Grade 3/4",0 n (%)
same,AE: Rash Erythematous,"Regimen 2C N = 8, Grade 3/4",0 n (%)
same,AE: Rash Papular,"Regimen 2C N = 8, Grade 3/4",0 n (%)
same,AE: Rectal Haemorrhage,"Regimen 2C N = 8, Grade 3/4",0 n (%)
same,AE: Renal Failure,"Regimen 2C N = 8, Grade 3/4",1 (12.5) n (%)
same,AE: Skin Exfoliation,"Regimen 2C N = 8, Grade 3/4",0 n (%)
same,AE: Stomatitis,"Regimen 2C N = 8, Grade 3/4",0 n (%)
same,AE: Subarachnoid Haemorrhage,"Regimen 2C N = 8, Grade 3/4",0 n (%)
same,AE: Thrombocytopenia/Platelet Count Decreased,"Regimen 2C N = 8, Grade 3/4",5 (62.5) n (%)
same,AE: Total,"Regimen 2C N = 8, Grade 3/4",5 (62.5) n (%)
same,AE: Tumour Lysis Syndrome,"Regimen 2C N = 8, Grade 3/4",1 (12.5) n (%)
same,AE: Vomiting,"Regimen 2C N = 8, Grade 3/4",0 n (%)
same,AE: Weight Decreased,"Regimen 2C N = 8, Grade 3/4",0 n (%)
same,AE: White Blood Cell Count Decreased,"Regimen 2C N = 8, Grade 3/4",2 (25.0) n (%)
